This test concerns the target T1, hTLR8 (Homo sapiens, UniProt Q9NR97).
T1 construct: host or cells: HEK293 cells stably transfected with hTLR8
T1 sequence (Q9NR97 27-1041): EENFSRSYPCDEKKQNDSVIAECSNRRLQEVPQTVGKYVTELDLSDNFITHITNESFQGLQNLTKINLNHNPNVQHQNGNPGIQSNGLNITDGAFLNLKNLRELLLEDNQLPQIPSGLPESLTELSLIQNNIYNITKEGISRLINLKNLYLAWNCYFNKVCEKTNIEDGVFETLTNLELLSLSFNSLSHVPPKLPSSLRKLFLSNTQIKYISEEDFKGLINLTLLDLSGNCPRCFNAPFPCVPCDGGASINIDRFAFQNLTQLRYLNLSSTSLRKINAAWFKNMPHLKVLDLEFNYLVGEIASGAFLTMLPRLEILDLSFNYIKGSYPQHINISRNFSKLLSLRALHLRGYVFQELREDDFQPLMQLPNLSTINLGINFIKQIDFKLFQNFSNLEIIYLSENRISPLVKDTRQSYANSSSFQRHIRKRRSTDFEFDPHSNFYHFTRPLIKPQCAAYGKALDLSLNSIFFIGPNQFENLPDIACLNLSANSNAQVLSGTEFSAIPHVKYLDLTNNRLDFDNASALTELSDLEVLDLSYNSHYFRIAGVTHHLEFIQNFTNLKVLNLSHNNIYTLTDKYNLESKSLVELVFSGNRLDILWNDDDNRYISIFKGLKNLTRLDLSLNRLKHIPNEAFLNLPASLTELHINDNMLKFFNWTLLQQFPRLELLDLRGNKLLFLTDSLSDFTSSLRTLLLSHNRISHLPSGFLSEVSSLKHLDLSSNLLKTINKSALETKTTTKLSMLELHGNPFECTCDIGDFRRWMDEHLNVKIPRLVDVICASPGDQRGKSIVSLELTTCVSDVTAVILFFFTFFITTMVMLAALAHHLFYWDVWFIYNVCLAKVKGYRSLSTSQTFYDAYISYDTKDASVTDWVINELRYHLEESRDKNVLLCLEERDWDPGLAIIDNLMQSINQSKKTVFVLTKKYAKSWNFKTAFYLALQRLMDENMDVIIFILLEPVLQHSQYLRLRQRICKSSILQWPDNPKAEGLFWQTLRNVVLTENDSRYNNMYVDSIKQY
Kind of test: HEK-293 hTLR8 transfectant antagonist assay (NF-κB driven SEAP reporter). The test is classed as cell-based. The settings on record: hTLR8 reporter cells. The protocol: The HEK-293 hTLR transfectant assay employs HEK293 cells stably transfected with various hTLRs and transiently co-transfected with a plasmid containing an NF-κB driven secreted embryonic alkaline phosphate (SEAP) reporter gene. Stimulation of TLRs activates their downstream signaling pathways and induces nuclear translocation of the transcription factor NF-κB. Reporter gene activity is then measured using a spectrophotometric assay. To measure antagonist activity, human embryonic kidney (HEK) cells (e.g., 293XL-hTLR8 cells available from InvivoGen, San Diego, Calif.) are prepared according to supplier's instructions and incubated with various concentrations of test compound overnight. The amount of induced […] is measured by reading the absorbance at 650 nm. The compounds of the invention have an MC50 of 25 μM or less, wherein MC50 is defined as the concentration at which 50% of maximum induction is seen. For the TLR8 antagonist assays, cells are transiently transfected with the reporter gene on Day 1 per the supplier's instructions. Antagonist compounds are added to the cultures on Day 2 followed by addition of a TLR8 agonist approximately 2 hours later. Cultures are incubated overnight and SEAP activity is measured on Day 3. In a typical assay, 50,000 HEK239 hTLR8 cells are seeded per culture well and transiently transfected with the SEAP reporter gene. Antagonists are added to cultures in culture medium and […] DMSO over a concentration range of 0.1 nanomolar to 10 micromolar. TLR8 agonists are added to cultures 2 hours later at a fixed concentration (e.g., 1 micromolar or 10 micromolar of Compound A) and cultures are then incubated for 16-24 hrs at 37° C. in a humidified CO incubator. Antagonists are also evaluated for activity in the absence of agonist. TLR8 antagonist activity was measured in a hTLR8 assay format, measuring IC50 values. […] IC50s were then calculated.

Setting [1] is: IC50, nM, vs. VTX-378 1 μM, TLR8 agonist VTX-378 (Compound A) 1 μM.
Where [2] appears, read: IC50, nM, vs. VTX-378 10 μM, TLR8 agonist VTX-378 (Compound A) 10 μM.
[3] abbreviates: TLR8 agonist VTX-378 (Compound A) 0.5 μM, read-out: IC50, nM, vs. VTX-378 0.5 μM.
The mark [4] stands for this setting: IC50, nM, vs. 3M002 10 μM, agonist 3M002 10 μM.
Where [5] appears, read: IC50, nM, vs. 3M002 1 μM, agonist 3M002 1 μM.

Like-named read-outs stand apart in the source and are kept apart here.

The source of these data is patent US9718796B2, “Substituted benzoazepines as toll-like receptor modulators” (VENTIRX PHARMACEUTICALS, INC., priority 2011, dated 2017).

On to `CCOC(=O)C1=Cc2cc(-c3ccc(C(=O)N4CCCC4)cc3)ccc2N=C(NOC)C1` [Compound 2930], for which the IC50 under setting [1] is not below 10000 nM and the IC50 under setting [2] was not below 10000 nM.

For the molecule `CCOC(=O)C1=Cc2cc(-c3ccc(N4CCCC4=O)cc3)ccc2N=C(N)C1` [Compound 3190, Ethyl 2-amino-7-[4-(2-oxopyrrolidin-1-yl)phenyl]-3H-1-benzazepine-4-carboxylate], the IC50 was 1000 to 10000 nM under setting [1] and less than 1000 nM under setting [3].

Consider `CCOC(=O)C1=Cc2cc(Oc3ccccc3)ccc2N=C(N)C1` [Compound 2946], for which the IC50 runs as follows: under setting [1], 1000 to 10000 nM; under setting [2], not below 10000 nM.

In the case of `CCOC(=O)C1=Cc2cc(-c3cccc(Cl)c3Cl)ccc2N=C(N)C1` [Compound 3155, Ethyl 2-amino-7-(2,3-dichlorophenyl)-3H-1-benzazepine-4-carboxylate], the IC50 by setting is: under setting [1], not below 10000 nM; under setting [3], 1000 to 10000 nM.

In the case of `CCOC(=O)C1=Cc2cc(-c3ccc(C(=O)N4CCCC4)cc3Cl)ccc2N=C(N)C1` [Compound 3322], the IC50 was less than 1000 nM under setting [4], less than 1000 nM under setting [1] and less than 1000 nM under setting [3].

With `CCCN(CC(N)=O)C(=O)C1=Cc2cc(-c3ccc(C(=O)N4CCCC4)cc3C)ccc2N=C(N)C1` [Compound 3343, 2-Amino-N-(2-amino-2-oxoethyl)-7-[2-methyl-4-(pyrrolidin-1-ylcarbonyl)phenyl]-N-propyl-3H-1-benzazepine-4-carboxamide], the IC50 runs as follows: under setting [1], less than 1000 nM; under setting [3], less than 1000 nM.

For the molecule `CCOC(=O)C1=Cc2cc(-c3ccc(C(=O)N4CCCC4)cc3)ccc2N=C(NCCO)C1` [Compound 2968], the IC50 reads like this: under setting [1], 1000 to 10000 nM; under setting [2], not below 10000 nM; under setting [3], 1000 to 10000 nM.

Turning to `CCOC(=O)C1=Cc2cc(-c3ccc(N4CCOC4=O)cc3)ccc2N=C(N)C1` [Compound 3300, Ethyl 2-amino-7-[4-(2-oxo-1,3-oxazolidin-3-yl)phenyl]-3H-1-benzazepine-4-carboxylate], the IC50 reads like this: under setting [5], less than 1000 nM; under setting [4], less than 1000 nM; under setting [1], less than 1000 nM; under setting [3], less than 1000 nM.

On to `CCOC(=O)C1=Cc2cc(-c3ccc(C(=O)N(C)C)cc3)ccc2N=C(N)C1` [Compound 2937, Ethyl 2-amino-7-[4-(dimethylcarbamoyl)phenyl]-3H-1-benzazepine-4-carboxylate], for which the IC50 is, setting by setting: under setting [1], less than 1000 nM; under setting [2], not below 10000 nM.

`CCCN(CC(N)=O)C(=O)C1=Cc2cc(-c3ccc(NC(=O)OCC)cc3Cl)ccc2N=C(N)C1` [Compound 3336, Ethyl (4-{2-amino-4-[(2-amino-2-oxoethyl)(propyl)carbamoyl)-3H-1-benzazepin-7-yl}-3-chlorophenyl)carbamate]: the IC50 is less than 1000 nM under setting [5], 1000 to 10000 nM under setting [4], 1000 to 10000 nM under setting [1] and less than 1000 nM under setting [3].

For the molecule `CCOC(=O)C1=Cc2cc(Oc3ccc(OC)cc3)ccc2N=C(N)C1` [Compound 3125], the IC50 is 1000 to 10000 nM under setting [5], not below 10000 nM under setting [4], 1000 to 10000 nM under setting [1] and 1000 to 10000 nM under setting [3].

In the case of `CCOC(=O)C1=Cc2cc(-c3ccc(OC)cc3)ccc2N=C(N)C1` [Compound 3098, Ethyl 2-amino-7-(4-methoxyphenyl)-3H-1-benzazepine-4-carboxylate], the IC50 was 1000 to 10000 nM under setting [4], not below 10000 nM under setting [1] and 1000 to 10000 nM under setting [3].

On to `CCOC(=O)C1=Cc2cc(-c3ccccc3C(C)C)ccc2N=C(N)C1` [Compound 3141, Ethyl 2-amino-7-(2-isopropylphenyl)-3H-1-benzazepine-4-carboxylate], for which the half-maximal inhibitory concentration (IC50) by setting is: under setting [1], 1000 to 10000 nM; under setting [3], less than 1000 nM.

On to `CCOC(=O)C1=Cc2cc(-c3ccc(NC(=O)N(C)C)cc3)ccc2N=C(N)C1` [Compound 3290, Ethyl 2-amino-7-{4-[(dimethylcarbamoyl)amino]phenyl}-3H-1-benzazepine-4-carboxylate], for which the IC50 runs as follows: under setting [5], less than 1000 nM; under setting [4], 1000 to 10000 nM; under setting [1], 1000 to 10000 nM; under setting [3], less than 1000 nM.

For `CCOC(=O)C1=Cc2cc(-c3ccccc3C(F)(F)F)ccc2N=C(N)C1` [Compound 3126, Ethyl 2-amino-7-[2-(trifluoromethyl)phenyl]-3H-1-benzazepine-4-carboxylate], the IC50 runs as follows: under setting [5], less than 1000 nM; under setting [4], 1000 to 10000 nM; under setting [1], 1000 to 10000 nM; under setting [3], less than 1000 nM.

On to `CCOC(=O)C1=Cc2cc(-c3ccc(C)cc3)ccc2N=C(N)C1` [Compound 3272, Ethyl 2-amino-7-(4-methylphenyl)-3H-1-benzazepine-4-carboxylate], for which the IC50 reads like this: under setting [5], less than 1000 nM; under setting [4], 1000 to 10000 nM; under setting [1], 1000 to 10000 nM; under setting [3], 1000 to 10000 nM.

Consider `CCOC(=O)C1=Cc2cc(C3=CCN(C(=O)N4CCCC4)CC3)ccc2N=C(N)C1` [Compound 3254], for which the IC50 runs as follows: under setting [1], 1000 to 10000 nM; under setting [3], 1000 to 10000 nM.

In the case of `CCOC(=O)C1=Cc2cc(-c3cccc(C)c3Cl)ccc2N=C(N)C1` [Compound 3294, Ethyl 2-amino-7-(2-chloro-3-methylphenyl)-3H-1-benzazepine-4-carboxylate], the half-inhibitory concentration (IC50) is, setting by setting: under setting [1], 1000 to 10000 nM; under setting [3], 1000 to 10000 nM.

`CCOC(=O)C1=Cc2cc(-c3cccc(OC)c3Cl)ccc2N=C(N)C1` [Compound 3386, Ethyl 2-amino-7-(2-chloro-3-methoxyphenyl)-3H-1-benzazepine-4-carboxylate]: the IC50 is less than 1000 nM under setting [1] and less than 1000 nM under setting [3].

With `CCOC(=O)C1=Cc2cc(Oc3cccc(C(F)(F)F)c3)ccc2N=C(N)C1` [Compound 3046], the IC50 runs as follows: under setting [4], 1000 to 10000 nM; under setting [1], 1000 to 10000 nM; under setting [2], not below 10000 nM.

Consider `CCOC(=O)C1=Cc2cc(-c3c(C)cccc3C)ccc2N=C(N)C1` [Compound 3162], for which the IC50 reads like this: under setting [1], 1000 to 10000 nM; under setting [3], 1000 to 10000 nM.

Turning to `NC1=Nc2ccc(-c3ccc(C(=O)N4CCCC4)cc3)cc2C=C(Br)C1` [Compound 3444], the IC50 by setting is: under setting [1], less than 1000 nM; under setting [3], less than 1000 nM.

For `CCOC(=O)C1=Cc2cc(-c3ccc(C(=O)OCC)cc3)ccc2N=C(N)C1` [Compound 3101, Ethyl 2-amino-7-[4-(ethoxycarbonyl)phenyl]-3H-1-benzazepine-4-carboxylate], the IC50 was not below 10000 nM under setting [4], not below 10000 nM under setting [1] and 1000 to 10000 nM under setting [3].

In the case of `CCOC(=O)Nc1ccc(-c2ccc3c(c2)C=C(C(=O)OCC)CC(N)=N3)cc1` [Compound 3199, Ethyl 2-amino-7-{4-[(ethoxycarbonyl)amino]phenyl}-3H-1-benzazepine-4-carboxylate], the IC50 by setting is: under setting [1], less than 1000 nM; under setting [3], less than 1000 nM.

As for `CCOC(=O)C1=Cc2cc(-c3cccc(C(F)(F)F)c3)ccc2N=C(N)C1` [Compound 3059, Ethyl 2-amino-7-[3-(trifluoromethyl)phenyl]-3H-1-benzazepine-4-carboxylate], the IC50 runs as follows: under setting [4], not below 10000 nM; under setting [1], 1000 to 10000 nM; under setting [2], not below 10000 nM.
